Source: ChEMBL document CHEMBL1201862, “PubChem BioAssay data set” (2004)
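A five-concentration, 48-hour dose response in 96-well plates underlies each endpoint, interpolated linearly between surrounding concentrations. At the GI50, growth is halved.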 Activity calls are given as the source filed them. Cut-off read from the data, not from the text of the source: active = GI50 up to about 1.1 µM and inactive = higher.

Legend:
Assay in all cases: NCI-60 cell line screen, 48 h
MOLT-4 = tested on: MOLT-4
HCC 2998 = tested on: HCC 2998
OVCAR-5 = tested on: OVCAR-5
SK-MEL-2 = tested on: SK-MEL-2
SW-620 = tested on: SW-620
UACC-257 = tested on: UACC-257
K562 = tested on: K562
SK-OV-3 = tested on: SK-OV-3
SK-MEL-28 = tested on: SK-MEL-28
COLO 205 = tested on: COLO 205
RXF 393 = tested on: RXF 393
OVCAR-3 = tested on: OVCAR-3
OVCAR-4 = tested on: OVCAR-4
EKVX = tested on: EKVX
NCI-H23 = tested on: NCI-H23
HCT-116 = tested on: HCT-116
RPMI-8226 = tested on: RPMI-8226

Measured: GI50

COc1ccc2c(c1)C(O)(C(F)(F)F)c1cc(C(=O)C(F)(F)F)c3ccccc3c1N2 (stereo unspecified)
inactive: MOLT-4 8.99 µM | HCC 2998 11.9 µM | OVCAR-5 14.4 µM | SK-MEL-2 12.2 µM | SW-620 13.9 µM | UACC-257 13.5 µM | K562 3.7 µM | SK-OV-3 17.8 µM | SK-MEL-28 14.6 µM | COLO 205 6.75 µM | RXF 393 11.5 µM | OVCAR-3 14.9 µM | OVCAR-4 10.5 µM | EKVX 18.3 µM | NCI-H23 12.4 µM

COC(=O)/C=C(\C(=O)OC)c1c2c3c(cc(OC)c(OC)c3c3ccccc13)CCN2C
inactive: MOLT-4 24.1 µM | HCC 2998 33.7 µM | OVCAR-5 > 100 µM | SK-MEL-2 35.4 µM | SW-620 35.5 µM | HCT-116 37.4 µM | UACC-257 30.5 µM | K562 26.2 µM | SK-OV-3 62.4 µM | SK-MEL-28 38.3 µM | RPMI-8226 26.8 µM | COLO 205 14.7 µM | RXF 393 8.79 µM | OVCAR-3 28.2 µM | EKVX 64.6 µM | NCI-H23 42.2 µM

CCOC(=O)C12CCCC1(O)N(NC(=O)c1ccccc1)C(C)=C2C(=O)OC (stereo unspecified)
inactive: MOLT-4 > 100 µM | HCC 2998 > 100 µM | OVCAR-5 > 100 µM | SK-MEL-2 > 100 µM | SW-620 > 100 µM | HCT-116 > 100 µM | UACC-257 > 100 µM | K562 > 100 µM | SK-OV-3 > 100 µM | RPMI-8226 > 100 µM | COLO 205 > 100 µM | OVCAR-3 > 100 µM | OVCAR-4 > 100 µM | EKVX > 100 µM | NCI-H23 > 100 µM

O=C1CSc2ccncc2N1
inactive: MOLT-4 > 100 µM | HCC 2998 > 100 µM | OVCAR-5 > 100 µM | SK-MEL-2 > 100 µM | SW-620 > 100 µM | HCT-116 > 100 µM | UACC-257 > 100 µM | K562 > 100 µM | SK-MEL-28 > 100 µM | COLO 205 > 100 µM | RXF 393 > 100 µM | OVCAR-3 > 100 µM | OVCAR-4 > 100 µM | EKVX > 100 µM | NCI-H23 > 100 µM

CCCNC(=S)NNC(=O)CSc1nc(-c2ccccc2)c(-c2ccccc2)[nH]1
inactive: MOLT-4 24.2 µM | OVCAR-5 > 100 µM | SK-MEL-2 > 100 µM | SW-620 99.3 µM | HCT-116 94.4 µM | UACC-257 45.6 µM | SK-OV-3 > 100 µM | SK-MEL-28 > 100 µM | RPMI-8226 28.4 µM | COLO 205 39 µM | OVCAR-3 28 µM | OVCAR-4 45.1 µM | EKVX 37 µM | NCI-H23 76 µM

COc1ccc2[nH]c3c(cnn4cnnc34)c2c1
inactive: MOLT-4 > 100 µM | HCC 2998 > 100 µM | OVCAR-5 > 100 µM | SK-MEL-2 > 100 µM | SW-620 > 100 µM | UACC-257 > 100 µM | K562 > 100 µM | SK-OV-3 > 100 µM | SK-MEL-28 > 100 µM | RPMI-8226 > 100 µM | COLO 205 > 100 µM | RXF 393 > 100 µM | OVCAR-3 > 100 µM | OVCAR-4 > 100 µM | EKVX 23.3 µM | NCI-H23 > 100 µM

Cn1c(=O)c2[nH]cnc2n(CC(=O)O)c1=O
inactive: MOLT-4 > 100 µM | OVCAR-5 > 100 µM | SK-MEL-2 > 100 µM | SW-620 > 100 µM | HCT-116 > 100 µM | K562 > 100 µM | SK-OV-3 > 100 µM | SK-MEL-28 > 100 µM | RPMI-8226 > 100 µM | COLO 205 > 100 µM | OVCAR-3 > 100 µM | EKVX > 100 µM | NCI-H23 > 100 µM

COc1cc2[nH]c3c(c2cc1OC)CCN[C@]31CC[C@]2(CC3c4c(cc(OC)c(O)c42)CCN3C)C[C@H]1OC (stereo partly specified)
inactive: MOLT-4 12.9 µM | HCC 2998 15.2 µM | OVCAR-5 69.3 µM | SW-620 22.3 µM | HCT-116 15.6 µM | UACC-257 19.9 µM | K562 11.6 µM | SK-OV-3 25.8 µM | SK-MEL-28 20.2 µM | RPMI-8226 15.2 µM | COLO 205 13.7 µM | RXF 393 3.04 µM | OVCAR-3 21.2 µM | OVCAR-4 23.8 µM | EKVX 55.7 µM | NCI-H23 65.5 µM

NC(=O)NNC(=O)NC12CC3CC(CC(C3)C1)C2
inactive: MOLT-4 > 100 µM | HCC 2998 > 100 µM | OVCAR-5 > 100 µM | SK-MEL-2 > 100 µM | SW-620 > 100 µM | HCT-116 > 100 µM | UACC-257 > 100 µM | K562 > 100 µM | SK-OV-3 > 100 µM | SK-MEL-28 > 100 µM | COLO 205 > 100 µM | RXF 393 > 100 µM | OVCAR-3 > 100 µM | OVCAR-4 > 100 µM | EKVX > 100 µM | NCI-H23 > 100 µM
